Data on 20 molecules can be found in patent publication US20230312576A1, “4-(7H-PYRROLO[2,3-D]PYRIMIDIN-4-YL)-3,6-DIHYDROPYRIDINE-1-(2H)-CARBOXAMIDE DERIVATIVES AS LIMK AND/OR ROCK KINASES INHIBITORS FOR USE IN THE TREATMENT OF CANCER” (CENTRE NATIONAL DE LA RECHERCHE SCIENTIFIQUE, priority 2020, published 2023).

Where two headings read alike, the source gives them in different places.

The target in assay [1] is LIMK2 (Homo sapiens (Human), UniProt P53671). The assay is described as follows: Lanthascreen Eu binding assay (TR-FRET), inhibition of LIMK2. A general note: TR-FRET usually uses a lanthanide donor and a delayed reading to cut background.
Assay [2] has as its target ROCK1 (Homo sapiens (Human), UniProt Q13464). The assay is described as follows: Z'Lyte assay, ROCK1 inhibition at a single concentration. Type of assay: biochemical.
Assay [3] concerns the target LIMK1 (Homo sapiens (Human), UniProt P53667). The assay can be described thus: Lanthascreen Eu binding assay (TR-FRET), inhibition of LIMK1.
The target of assay [4] is ROCK2 (Homo sapiens (Human), UniProt O75116). The assay can be described thus: Z'Lyte assay, ROCK2 inhibition at a single concentration. Type of assay: biochemical.
Where [5] appears, read: read-out: % inhibition (ROCK1) 1 uM, 1 uM.
[6] abbreviates: read-out: % inhibition (ROCK2) 1 uM, 1 uM.

Chain of ROCK1 (Q13464 whole entry): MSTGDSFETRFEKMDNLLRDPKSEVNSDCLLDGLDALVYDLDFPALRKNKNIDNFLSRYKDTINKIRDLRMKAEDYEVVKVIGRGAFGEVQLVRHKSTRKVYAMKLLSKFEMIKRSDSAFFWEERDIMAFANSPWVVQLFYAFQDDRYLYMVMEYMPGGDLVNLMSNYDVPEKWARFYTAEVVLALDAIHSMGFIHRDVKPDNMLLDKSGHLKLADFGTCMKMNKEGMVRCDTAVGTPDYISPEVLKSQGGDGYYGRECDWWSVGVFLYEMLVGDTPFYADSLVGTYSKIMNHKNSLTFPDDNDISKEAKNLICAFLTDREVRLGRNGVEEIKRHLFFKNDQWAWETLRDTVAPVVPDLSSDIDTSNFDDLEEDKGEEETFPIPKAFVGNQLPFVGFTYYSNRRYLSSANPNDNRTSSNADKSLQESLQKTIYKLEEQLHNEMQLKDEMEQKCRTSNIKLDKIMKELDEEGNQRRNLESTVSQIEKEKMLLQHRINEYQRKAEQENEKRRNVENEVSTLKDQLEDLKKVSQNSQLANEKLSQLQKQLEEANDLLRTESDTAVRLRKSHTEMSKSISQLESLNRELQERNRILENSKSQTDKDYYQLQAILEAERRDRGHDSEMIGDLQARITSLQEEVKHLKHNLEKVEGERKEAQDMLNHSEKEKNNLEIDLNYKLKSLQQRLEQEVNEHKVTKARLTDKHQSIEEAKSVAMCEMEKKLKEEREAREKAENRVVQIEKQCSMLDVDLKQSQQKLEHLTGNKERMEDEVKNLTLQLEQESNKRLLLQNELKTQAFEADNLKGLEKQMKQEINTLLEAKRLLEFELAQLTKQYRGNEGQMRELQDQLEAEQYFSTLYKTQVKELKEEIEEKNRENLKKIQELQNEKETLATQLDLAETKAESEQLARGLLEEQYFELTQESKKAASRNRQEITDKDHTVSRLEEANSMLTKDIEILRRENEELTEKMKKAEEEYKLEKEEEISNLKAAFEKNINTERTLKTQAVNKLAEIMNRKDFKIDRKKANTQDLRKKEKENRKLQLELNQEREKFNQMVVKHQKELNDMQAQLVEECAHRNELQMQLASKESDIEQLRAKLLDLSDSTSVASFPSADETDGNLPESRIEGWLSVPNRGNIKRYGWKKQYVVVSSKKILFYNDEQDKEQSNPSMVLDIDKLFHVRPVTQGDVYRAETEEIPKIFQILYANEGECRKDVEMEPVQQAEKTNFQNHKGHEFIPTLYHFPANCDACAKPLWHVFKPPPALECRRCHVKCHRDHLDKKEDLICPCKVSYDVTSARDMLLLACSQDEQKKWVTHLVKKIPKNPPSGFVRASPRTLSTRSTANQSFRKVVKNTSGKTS
Chain of ROCK2 (O75116 whole entry): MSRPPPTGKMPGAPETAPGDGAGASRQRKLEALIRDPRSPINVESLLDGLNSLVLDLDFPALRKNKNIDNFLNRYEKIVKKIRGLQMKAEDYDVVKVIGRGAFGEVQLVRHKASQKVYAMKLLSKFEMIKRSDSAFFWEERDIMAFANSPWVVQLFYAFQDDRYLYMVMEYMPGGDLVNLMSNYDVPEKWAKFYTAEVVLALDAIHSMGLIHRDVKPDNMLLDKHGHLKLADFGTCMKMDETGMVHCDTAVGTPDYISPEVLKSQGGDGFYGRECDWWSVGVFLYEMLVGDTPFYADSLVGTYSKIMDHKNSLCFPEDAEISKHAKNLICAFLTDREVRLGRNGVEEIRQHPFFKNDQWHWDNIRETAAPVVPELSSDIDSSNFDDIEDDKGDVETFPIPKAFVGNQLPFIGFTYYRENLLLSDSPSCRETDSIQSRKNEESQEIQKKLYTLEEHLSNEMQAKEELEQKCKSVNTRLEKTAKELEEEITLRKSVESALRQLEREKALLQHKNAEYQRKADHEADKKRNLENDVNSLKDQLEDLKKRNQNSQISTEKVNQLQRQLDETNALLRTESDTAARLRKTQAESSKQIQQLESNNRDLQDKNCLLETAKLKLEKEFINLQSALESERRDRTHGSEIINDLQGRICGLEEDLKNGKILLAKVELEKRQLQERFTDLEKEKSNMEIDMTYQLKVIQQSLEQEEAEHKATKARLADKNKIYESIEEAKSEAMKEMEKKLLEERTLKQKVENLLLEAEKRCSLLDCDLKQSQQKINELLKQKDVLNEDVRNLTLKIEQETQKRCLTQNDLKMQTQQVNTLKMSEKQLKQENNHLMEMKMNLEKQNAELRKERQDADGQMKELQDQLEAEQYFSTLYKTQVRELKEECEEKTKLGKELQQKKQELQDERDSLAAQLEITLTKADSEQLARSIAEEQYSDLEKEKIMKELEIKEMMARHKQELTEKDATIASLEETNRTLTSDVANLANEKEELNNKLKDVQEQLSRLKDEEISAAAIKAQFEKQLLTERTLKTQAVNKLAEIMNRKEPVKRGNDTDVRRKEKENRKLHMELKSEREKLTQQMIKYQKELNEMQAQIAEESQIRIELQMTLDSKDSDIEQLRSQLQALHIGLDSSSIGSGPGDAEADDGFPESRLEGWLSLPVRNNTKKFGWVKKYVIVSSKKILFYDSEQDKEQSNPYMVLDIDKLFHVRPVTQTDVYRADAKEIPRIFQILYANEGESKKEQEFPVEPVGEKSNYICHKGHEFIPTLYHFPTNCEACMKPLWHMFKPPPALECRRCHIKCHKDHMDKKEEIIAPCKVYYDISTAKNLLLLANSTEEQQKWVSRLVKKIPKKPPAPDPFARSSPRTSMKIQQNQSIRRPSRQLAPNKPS
Chain of LIMK1 (P53667 whole entry): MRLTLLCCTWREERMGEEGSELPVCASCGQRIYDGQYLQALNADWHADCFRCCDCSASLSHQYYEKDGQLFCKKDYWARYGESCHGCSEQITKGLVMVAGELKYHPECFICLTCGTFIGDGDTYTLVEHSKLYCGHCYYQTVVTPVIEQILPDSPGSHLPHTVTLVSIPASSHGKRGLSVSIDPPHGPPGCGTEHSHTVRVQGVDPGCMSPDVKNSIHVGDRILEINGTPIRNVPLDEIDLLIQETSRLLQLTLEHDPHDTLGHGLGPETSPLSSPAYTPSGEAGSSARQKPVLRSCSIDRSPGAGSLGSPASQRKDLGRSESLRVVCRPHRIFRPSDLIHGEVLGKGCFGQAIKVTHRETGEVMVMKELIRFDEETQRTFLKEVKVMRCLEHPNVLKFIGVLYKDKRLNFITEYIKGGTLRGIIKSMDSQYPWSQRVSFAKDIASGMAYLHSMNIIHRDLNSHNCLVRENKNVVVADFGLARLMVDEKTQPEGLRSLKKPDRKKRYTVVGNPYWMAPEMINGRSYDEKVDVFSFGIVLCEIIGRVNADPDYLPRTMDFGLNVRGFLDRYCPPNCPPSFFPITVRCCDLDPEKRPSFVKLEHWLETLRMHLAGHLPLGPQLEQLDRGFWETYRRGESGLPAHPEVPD
Chain of LIMK2 (P53671 whole entry): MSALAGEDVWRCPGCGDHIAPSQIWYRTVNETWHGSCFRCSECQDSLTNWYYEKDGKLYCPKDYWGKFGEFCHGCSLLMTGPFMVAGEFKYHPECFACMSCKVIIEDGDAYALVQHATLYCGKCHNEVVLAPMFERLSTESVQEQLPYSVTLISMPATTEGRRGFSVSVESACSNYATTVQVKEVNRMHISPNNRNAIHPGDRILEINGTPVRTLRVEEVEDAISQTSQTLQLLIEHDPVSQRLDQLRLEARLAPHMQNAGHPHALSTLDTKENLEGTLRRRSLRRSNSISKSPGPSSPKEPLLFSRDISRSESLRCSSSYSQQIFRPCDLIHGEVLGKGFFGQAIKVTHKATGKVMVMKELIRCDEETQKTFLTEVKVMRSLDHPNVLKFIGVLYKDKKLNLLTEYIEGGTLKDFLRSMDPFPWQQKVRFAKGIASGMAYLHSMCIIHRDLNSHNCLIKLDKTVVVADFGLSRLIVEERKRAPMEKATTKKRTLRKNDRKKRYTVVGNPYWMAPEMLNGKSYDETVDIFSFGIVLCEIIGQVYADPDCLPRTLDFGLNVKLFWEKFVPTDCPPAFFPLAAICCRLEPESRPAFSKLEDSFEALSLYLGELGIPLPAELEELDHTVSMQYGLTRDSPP

For orientation: Ki means a dissociation constant, usually derived from enzyme kinetics or from competition with a known ligand. Read a low Ki as a stronger hold on the target. The inhibition is the relative decrease from the control value, in per cent. Take `CN1CCc2[nH]c3ncnc(C4=CCN(C(=O)Nc5cccc(Br)c5)CC4)c3c2C1` [Compound 162, N-(3-Bromophenyl)-4-(6-methyl-6,7,8,9-tetrahydro-5H-pyrido [3′,4′:4,5]pyrrolo[2,3-d]pyrimidin-4-yl)-3,6-dihydropyridine-1(2H)-carboxamide]: the Ki in assay [1] turned out to be 1030 nM; in assay [3], 722 nM. Besides, the figures for the inhibition at 1 µM in assay [2] (read-out: % inhibition (ROCK1) 1 uM) and in assay [4] (read-out: % inhibition (ROCK2) 1 uM) were 4% and -8%, respectively.

As to `CC(C)(C)OC(=O)NCCCOc1cccc(-c2cccc(NC(=O)N3CC=C(c4ncnc5[nH]c6c(c45)CCC6)CC3)c2)c1` [Compound 164, tert-butyl (3-((3′-(4-(5,6,7,8-tetrahydrocyclopenta[4,5]pyrrolo[2,3-d]pyrimidin-4-yl)-1,2,3,6-tetrahydropyridine-1-carboxamido)-[1,1′-biphenyl]-3-yl)oxy)propyl)carbamate], the results for the inhibition constant (Ki) in assay [1] (Lanthascreen Eu binding assay) and in assay [3] (Lanthascreen Eu binding assay) were 41.2 nM and 48.4 nM, respectively. Further, the inhibition at 1 µM in assay [2] (setting [5]) is -2%; in assay [4] (setting [6]), 4%.

`CC(C)(C)OC(=O)NCCCOc1cccc(-c2cccc(NC(=O)N3CC=C(c4ncnc5[nH]cc(C6CC6)c45)CC3)c2)c1` [Compound 165, tert-butyl N-[3-[3-[3-[[4-(5-cyclopropyl-7H-pyrrolo[2,3-d]pyrimidin-4-yl)-3,6-dihydro-2H-pyridine-1-carbonyl]amino]phenyl]phenoxy]propyl]carbamate]: the inhibition constant (Ki) in assay [1] (Lanthascreen Eu binding assay) was 58.1 nM; in assay [3] (Lanthascreen Eu binding assay) it was 169 nM. For the same molecule, the inhibition at 1 µM in assay [2] (setting [5]) was -2%; in assay [4] (setting [6]), 7%.

Take `Cc1c[nH]c2ncnc(C3=CCN(C(=O)Nc4cccc(-c5cccc(OCCCNC(=O)OC(C)(C)C)c5)c4)CC3)c12` [Compound 166, tert-butyl N-[3-[3-[3-[[4-(5-methyl-7H-pyrrolo[2,3-d]pyrimidin-4-yl)-3,6-di hydro-2H-pyridine-1-carbonyl]amino]phenyl]phenoxy]propyl]carbamate]: the inhibition constant (Ki) in assay [1] (Lanthascreen Eu binding assay) is 122 nM; in assay [3] (Lanthascreen Eu binding assay), 94.6 nM. Also, the inhibition at 1 µM in assay [2] (setting [5]) was determined as 12%; in assay [4] (setting [6]), 2%.

Regarding `CC1=CC(C)=[N+]2C1=Cc1ccc(CCC(=O)NCCCOc3cccc(-c4cccc(NC(=O)N5CC=C(c6ncnc7[nH]c8c(c67)CCC8)CC5)c4)c3)n1[B-]2(F)F` [Compound 167, N-(3′-(3-(3-(5,5-Difluoro-7,9-dimethyl-5H-dipyrrolo[1,2-c:2′,1′-f][1,3,2]diazaborinin-3-yl)propanamido)propoxy)-[1,1′-biphenyl]-3-yl)-4-(5,6,7,8-tetrahydrocyclopenta[4,5]pyrrolo[2,3-d]pyrimidin-4-yl)-3,6-dihydropyridine-1(2H)-carboxamide], the results for the Ki in assay [1] and in assay [3] were 113 nM and 112 nM, respectively. For the same molecule, in assay [2], the “% inhibition (ROCK1) 1 uM” value is −4%. In addition, the “% inhibition (ROCK2) 1 uM” value in assay [4] came to 6%.

Consider `Cc1c[nH]c2ncnc(C3=CCN(C(=O)Nc4cccc(C(=O)N5CCN(S(C)(=O)=O)CC5)c4)CC3)c12` [Compound 172, 4-(5-methyl-7H-pyrrolo[2,3-d]pyrimidin-4-yl)-N-[3-(4-methylsulfonylpiperazine-1-carbonyl)phenyl]-3,6-dihydro-2H-pyridine-1-carboxamide], for which the results for the inhibition constant (Ki) in assay [1] (Lanthascreen Eu binding assay) and in assay [3] (Lanthascreen Eu binding assay) were 2540 nM and 1080 nM, respectively. The inhibition at 1 µM stood at 88% in assay [2] (setting [5]) and 78% in assay [4] (setting [6]).

As for `Cc1c[nH]c2ncnc(C3=CCN(C(=O)Nc4cccc(Oc5cccc(N(C)C)c5)c4)CC3)c12` [Compound 177, N-(3-(3-(dimethylamino)phenoxy)phenyl)-4-(5-methyl-7H-pyrrolo[2,3-d]pyrimidin-4-yl)-3,6-dihydropyridine-1(2H)-carboxamide], the inhibitory constant (Ki) in assay [1] (Lanthascreen Eu binding assay) was 150 nM; in assay [3] (Lanthascreen Eu binding assay), 33.6 nM. Moreover, the results for the inhibition at 1 µM in assay [2] (setting [5]) and in assay [4] (setting [6]) were 49% and 30%, respectively.

With `Cc1c[nH]c2ncnc(C3=CCN(C(=O)Nc4cccc(OCCN5CCN(C)CC5)c4)CC3)c12` [Compound 184, 4-(5-methyl-7H-pyrrolo[2,3-d]pyrimidin-4-yl)-N-(3-(2-(4-methylpiperazin-1-yl)ethoxy)phenyl)-3,6-dihydropyridine-1(2H)-carboxamide], the inhibitory constant (Ki) in assay [1] (Lanthascreen Eu binding assay) is 1470 nM; in assay [3] (Lanthascreen Eu binding assay), 710 nM. Also, the inhibition at 1 µM was determined as 87% in assay [2] (setting [5]) and 78% in assay [4] (setting [6]).

Turning to `Cc1c[nH]c2ncnc(C3=CCN(C(=O)Nc4cccc(OCCCN5CCN(C)CC5)c4)CC3)c12` [Compound 185, 4-(5-methyl-7H-pyrrolo[2,3-d]pyrimidin-4-yl)-N-(3-(3-(4-methylpiperazin-1-yl)propoxy)phenyl)-3,6-dihydropyridine-1(2H)-carboxamide], the values for the Ki in assay [1] (Lanthascreen Eu binding assay) and in assay [3] (Lanthascreen Eu binding assay) were 863 nM and 669 nM, respectively. Moreover, the inhibition at 1 µM was found to be 99% in assay [2] (setting [5]) and 97% in assay [4] (setting [6]).

Take `Cc1c[nH]c2ncnc(C3=CCN(C(=O)Nc4cccc(OCCCNC(=O)OC(C)(C)C)c4)CC3)c12` [Compound 188, tert-Butyl (3-(3-(4-(5-methyl-7H-pyrrolo[2,3-d]pyrimidin-4-yl)-1,2,3,6-tetrahydropyridine-1-carboxamido)phenoxy)propyl)carbamate]: the Ki in assay [1] (Lanthascreen Eu binding assay) was 50.8 nM; in assay [3] (Lanthascreen Eu binding assay), 65 nM. Further, the inhibition at 1 µM amounted to 48% in assay [2] (setting [5]) and 33% in assay [4] (setting [6]).

For `Cc1c[nH]c2ncnc(C3=CCN(C(=O)Nc4cccc(OCC5CCN(C)CC5)c4)CC3)c12` [Compound 195, 4-(5-methyl-7H-pyrrolo[2,3-d]pyrimidin-4-yl)-N-(3-((1-methylpiperidin-4-yl)methoxy)phenyl)-3,6-dihydropyridine-1(2H)-carboxamide], the Ki was 189 nM in assay [1] (Lanthascreen Eu binding assay) and 174 nM in assay [3] (Lanthascreen Eu binding assay). The values for the inhibition at 1 µM in assay [2] (setting [5]) and in assay [4] (setting [6]) were 99% and 93%, respectively.

Take `CNC(=O)c1cc(Oc2ccc(NC(=O)N3CC=C(c4ncnc5[nH]cc(C)c45)CC3)cc2)ccn1` [Compound 196, N-methyl-4-(4-(4-(5-methyl-7H-pyrrolo[2,3-d]pyrimidin-4-yl)-1,2,3,6-tetrahydropyridine-1-carboxamido)phenoxy)picolinamide]: the Ki in assay [1] (Lanthascreen Eu binding assay) was 49.3 nM; in assay [3] (Lanthascreen Eu binding assay), 192 nM. Moreover, the inhibition at 1 µM was 21% in assay [2] (setting [5]) and 12% in assay [4] (setting [6]).

Regarding `CNC(=O)c1cc(Oc2cccc(NC(=O)N3CC=C(c4ncnc5[nH]cc(C)c45)CC3)c2)ccn1` [Compound 198, N-methyl-4-(3-(4-(5-methyl-7H-pyrrolo[2,3-d]pyrimidin-4-yl)-1,2,3,6-tetrahydropyridine-1-carboxamido)phenoxy)picolinamide], the Ki was 2.89 nM in assay [1] (Lanthascreen Eu binding assay) and 3.08 nM in assay [3] (Lanthascreen Eu binding assay). Moreover, the inhibition at 1 µM came to 79% in assay [2] (setting [5]) and 65% in assay [4] (setting [6]).

Take `Cc1c[nH]c2ncnc(C3=CCN(C(=O)Nc4cccc(Oc5cccc(F)c5)c4)CC3)c12` [Compound 200, N-(3-(3-fluorophenoxy)phenyl)-4-(5-methyl-7H-pyrrolo[2,3-d]pyrimidin-4-yl)-3,6-dihydropyridine-1(2H)-carboxamide]: the figures for the inhibition constant Ki in assay [1] (Lanthascreen Eu binding assay) and in assay [3] (Lanthascreen Eu binding assay) were 9.83 nM and 46.2 nM, respectively. In addition, the values for the inhibition at 1 µM in assay [2] (setting [5]) and in assay [4] (setting [6]) were 35% and 13%, respectively.

For `Cc1c[nH]c2ncnc(C3=CCN(C(=O)Nc4cccc(Oc5ccc(F)cc5)c4)CC3)c12` [Compound 202, N-(3-(4-fluorophenoxy)phenyl)-4-(5-methyl-7H-pyrrolo[2,3-d]pyrimidin-4-yl)-3,6-dihydropyridine-1(2H)-carboxamide], the inhibition constant (Ki) in assay [1] (Lanthascreen Eu binding assay) came to 68.7 nM; in assay [3] (Lanthascreen Eu binding assay), 70.4 nM. The results for the inhibition at 1 µM in assay [2] (setting [5]) and in assay [4] (setting [6]) were 26% and 15%, respectively.

For the molecule `Cc1c[nH]c2ncnc(C3=CCN(C(=O)Nc4cccc(Oc5cccc(Cl)c5)c4)CC3)c12` [Compound 204, N-(3-(3-chlorophenoxy)phenyl)-4-(5-methyl-7H-pyrrolo[2,3-d]pyrimidin-4-yl)-3,6-dihydropyridine-1(2H)-carboxamide], the inhibition constant (Ki) in assay [1] (Lanthascreen Eu binding assay) was 15.6 nM; in assay [3] (Lanthascreen Eu binding assay), 50.5 nM. The inhibition at 1 µM was determined as 71% in assay [2] (setting [5]) and 46% in assay [4] (setting [6]).

On to `Cc1c[nH]c2ncnc(C3=CCN(C(=O)Nc4cccc(Oc5ccc(Br)cc5Cl)c4)CC3)c12` [Compound 206, N-(3-(4-bromo-2-chlorophenoxy)phenyl)-4-(5-methyl-7H-pyrrolo[2,3-d]pyrimidin-4-yl)-3,6-dihydropyridine-1(2H)-carboxamide], for which the inhibition constant (Ki) came out at 676 nM in assay [1] (Lanthascreen Eu binding assay) and 418 nM in assay [3] (Lanthascreen Eu binding assay). Also, the inhibition at 1 µM in assay [2] (setting [5]) was 13%; in assay [4] (setting [6]), 3%.

`Cc1c[nH]c2ncnc(C3=CCN(C(=O)Nc4cccc(Oc5cccnc5)c4)CC3)c12` [Compound 208, 4-(5-methyl-7H-pyrrolo[2,3-d]pyrimidin-4-yl)-N-(3-(pyridin-3-yloxy)phenyl)-3,6-dihydropyridine-1(2H)-carboxamide]: the figures for the inhibition constant Ki in assay [1] (Lanthascreen Eu binding assay) and in assay [3] (Lanthascreen Eu binding assay) were 7.57 nM and 37.3 nM, respectively. The values for the inhibition at 1 µM in assay [2] (setting [5]) and in assay [4] (setting [6]) were 91% and 72%, respectively.

On to `Cc1c[nH]c2ncnc(C3=CCN(C(=O)Nc4cccc(Oc5cccc(OCc6ccccc6)c5)c4)CC3)c12` [Compound 211, N-(3-(3-(benzyloxy)phenoxy)phenyl)-4-(5-methyl-7H-pyrrolo[2,3-d]pyrimidin-4-yl)-3,6-dihydropyridine-1(2H)-carboxamide], for which the Ki in assay [1] (Lanthascreen Eu binding assay) was determined as 466 nM; in assay [3] (Lanthascreen Eu binding assay), 103 nM. In addition, the inhibition at 1 µM in assay [2] (setting [5]) is 5%; in assay [4] (setting [6]), 3%.

Take `Cc1c[nH]c2ncnc(C3=CCN(C(=O)Nc4cccc(Oc5cccc(O)c5)c4)CC3)c12` [Compound 213, N-(3-(3-hydroxyphenoxy)phenyl)-4-(5-methyl-7H-pyrrolo[2,3-d]pyrimidin-4-yl)-3,6-dihydropyridine-1(2H)-carboxamide]: the inhibition constant Ki in assay [1] (Lanthascreen Eu binding assay) was determined as 16.3 nM; in assay [3] (Lanthascreen Eu binding assay) it was 12.9 nM. For the same molecule, the inhibition at 1 µM is 55% in assay [2] (setting [5]) and 27% in assay [4] (setting [6]).
